From patent US20240360178A1, “MACROCYCLIC IMMUNOMODULATORS” (Bristol-Myers Squibb Company, priority 2021, published 2024)
Positions of bridges follow the written chain, without caps; N, C: chain ends. Non-standard residues stand in square brackets, D forms with d. Residues, ends and D or L forms follow the SMILES beside them. ξ: configuration not given here. *: point of attachment. Phe(4-COOH) = N[C@@H](Cc1ccc(C(=O)O)cc1)C(=O)O; Bip = N[C@@H](Cc1ccc(-c2ccccc2)cc1)C(=O)O; Phe(3-Me) = Cc1cccc(C[C@H](N)C(=O)O)c1; 1Nal = N[C@@H](Cc1cccc2ccccc12)C(=O)O; NMeF = CN[C@@H](Cc1ccccc1)C(=O)O; hPhe = N[C@@H](CCc1ccccc1)C(=O)O; 4Pal = N[C@@H](Cc1ccncc1)C(=O)O; dTic = O=C(O)[C@H]1Cc2ccccc2CN1; Cha = N[C@@H](CC1CCCCC1)C(=O)O; Carboxymethyl = O=C(O)C*; NMeA = CN[C@@H](C)C(=O)O; Nle = CCCC[C@H](N)C(=O)O; Orn = NCCC[C@H](N)C(=O)O; Dab = NCC[C@H](N)C(=O)O; Dap = NC[C@H](N)C(=O)O; ξV = CC(C)C(N)C(=O)O; Sar = CNCC(=O)O

These compounds were tested against T1, human PD-1 (Jurkat-PD-1 cells) / PE-labeled human PD-L1-Ig (Homo sapiens, UniProt Q15116) (assay: Jurkat-PD-1 Cell Binding High-Content Screening Assay (CBA); Jurkat hPD1-PDL1 assay). Settings: Jurkat cell line over-expressing human PD-1; PE-labeled PD-L1-Ig 20 nM final; compound incubated 2 hours at 37° C.; read-out: Jurkat HPD1-PDL1 IC50.
T1 construct: expressed in transfected cells; host or cells: Jurkat cell line over-expressing human PD-1
T1 sequence (Q15116 25-288): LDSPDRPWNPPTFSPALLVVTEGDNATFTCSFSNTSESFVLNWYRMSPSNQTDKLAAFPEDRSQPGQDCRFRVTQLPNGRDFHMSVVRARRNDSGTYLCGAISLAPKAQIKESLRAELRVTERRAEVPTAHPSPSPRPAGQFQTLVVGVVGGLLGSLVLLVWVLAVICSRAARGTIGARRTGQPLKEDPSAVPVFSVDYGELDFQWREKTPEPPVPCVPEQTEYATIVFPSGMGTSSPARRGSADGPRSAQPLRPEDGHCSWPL
Procedure, shortened: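 Binding of phycoerythrin-conjugated PD-L1-Ig (20 nM final) to PD-1-overexpressing Jurkat cells was read by high-content imaging. Cells in DMEM/10% FCS were exposed to compound for 2 hours at 37° C before labeled ligand was added.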

IC50	SMILES
0.27 µM	CC(C)C[C@@H]1NC(=O)[C@H](CCCN)NC(=O)[C@H]2Cc3ccccc3CN2C(=O)[C@H](C)N(C)C(=O)[C@H](CCCNC(=N)N)NC(=O)[C@H](Cc2ccc(-c3ccccc3)cc2)NC(=O)[C@H](C(C)C)NC(=O)[C@H](Cc2c[nH]c3ccccc23)NC(=O)[C@H](CC(=O)O)NC(=O)[C@H](Cc2ccc(O)cc2)NC(=O)[C@H](CC(N)=O)NC(=O)CSC[C@@H](C(=O)N[C@@H](C)C(N)=O)NC(=O)[C@H]([C@@H](C)O)NC(=O)[C@H](C(C)C)NC1=O [Example 1356] ({CH2CO}-NYDWV[Bip]R[NMeA][dTic][Orn]LVTCA-NH2; thioether N-14)
0.31 µM	CCCC[C@@H]1NC(=O)CSC[C@@H](C(=O)NCC(N)=O)NC(=O)[C@H](CO)NC(=O)[C@H](C(C)C)NC(=O)[C@H](CC(C)C)NC(=O)[C@H](CC(N)=O)NC(=O)CN(C)C(=O)[C@H](C)N(C)C(=O)[C@H](C(C)C)NC(=O)[C@H](Cc2ccc(-c3ccccc3)cc2)NC(=O)[C@H](CC(C)C)NC(=O)[C@H](Cc2c[nH]c3ccccc23)NC(=O)[C@H](CC(=O)O)NC(=O)[C@H](Cc2ccc(O)cc2)NC1=O [Example 1100] ({CH2CO}-[Nle]YDWL[Bip]V[NMeA][Sar]NLVSCG-NH2; thioether N-14)
0.17 µM	CC(C)C[C@@H]1NC(=O)[C@H](CCCNC(=N)N)NC(=O)[C@H](Cc2ccccc2)N(C)C(=O)[C@H](C)N(C)C(=O)[C@H](CCCNC(=N)N)NC(=O)[C@H](Cc2ccc(-c3ccccc3)cc2)NC(=O)[C@H](C(C)C)NC(=O)[C@H](Cc2cccc3ccccc23)NC(=O)[C@H](CC(=O)O)NC(=O)[C@H](Cc2ccc(O)cc2)NC(=O)[C@H](Cc2ccccc2)NC(=O)CSC[C@@H](C(=O)NCC(N)=O)NC(=O)[C@H](CO)NC(=O)[C@H](C(C)C)NC1=O [Example 1240] ({CH2CO}-FYD[1Nal]V[Bip]R[NMeA][NMeF]RLVSCG-NH2; thioether N-14)
0.18 µM	CC(C)C[C@@H]1NC(=O)[C@H](Cc2c[nH]c3ccccc23)NC(=O)[C@H](CC(=O)O)NC(=O)[C@H](Cc2ccc(O)cc2)NC(=O)[C@H](CCc2ccccc2)NC(=O)CSC[C@@H](C(=O)N[C@@H](C)C(N)=O)NC(=O)[C@H](CO)NC(=O)[C@H](C(C)C)NC(=O)[C@H](CC(C)C)NC(=O)[C@H](CC(N)=O)NC(=O)CN(C)C(=O)[C@H](C)N(C)C(=O)[C@H](C(C)C)NC(=O)[C@H](Cc2ccc(-c3ccccc3)cc2)NC1=O [Example 1070] ({CH2CO}-[hPhe]YDWL[Bip]V[NMeA][Sar]NLVSCA-NH2; thioether N-14)
0.07 µM	CC(C)[C@@H]1NC(=O)[C@H](Cc2c[nH]c3ccccc23)NC(=O)[C@H](CC(=O)O)NC(=O)[C@H](Cc2ccc(C(=O)O)cc2)NC(=O)[C@H](Cc2ccncc2)NC(=O)CSC[C@@H](C(=O)N[C@@H](C)C(N)=O)NC(=O)[C@H]([C@@H](C)O)NC(=O)[C@H](C(C)C)NC(=O)[C@H](CC2CCCCC2)NC(=O)[C@H](CCN)NC(=O)[C@H](Cc2ccccc2)N(C)C(=O)[C@H](CCCN)NC(=O)[C@H](CCC(=O)O)NC(=O)[C@H](Cc2ccc(-c3ccccc3)cc2)NC1=O [Example 1438] ({CH2CO}-[4Pal][Phe(4-COOH)]DWV[Bip]E[Orn][NMeF][Dab][Cha]VTCA-NH2; thioether N-14)
0.03 µM	Cc1cccc(C[C@@H]2NC(=O)[C@H](CC(=O)O)NC(=O)[C@H](Cc3ccc(OCC(=O)O)cc3)NC(=O)[C@H](CN)NC(=O)CSC[C@@H](C(=O)N[C@@H](C)C(N)=O)NC(=O)[C@H]([C@@H](C)O)NC(=O)[C@H](C(C)C)NC(=O)[C@H](CC3CCCCC3)NC(=O)[C@H](CCN)NC(=O)[C@H](Cc3ccccc3)N(C)C(=O)[C@H](CCCN)NC(=O)[C@H](CCC(=O)O)NC(=O)[C@H](Cc3ccc(-c4ccccc4)cc3)NC(=O)C(C(C)C)NC2=O)c1 (stereo partly drawn) [Example 1448] ({CH2CO}-[Dap]Y(Carboxymethyl)D[Phe(3-Me)][ξV][Bip]E[Orn][NMeF][Dab][Cha]VTCA-NH2; thioether N-14)
